# How the values were obtained:
# healthy male volunteers [1] = experiment: Cuff algometry (tourniquet cuff on the leg, VAS-time AUC); assay type: in vivo, human; parameters: AUC of VAS during cuff algometry: unit not given beside the values; conditions: mean (SD)
# Text: A tourniquet cuff was applied to the middle of the leg, at the level of the heads of the gastrocnemius and soleus muscle. The cuff was applied at the side contralateral to the side of electrical stimulation in order not to interfere with the positioning of the intramuscular electrodes. During stimulation, the volunteer rated the pain intensity on an electronic VAS scale. The cuff was inflated with compressed air until VAS 6 was reached. The maximum allowed inflating pressure was 200 kPa. The pressure was maintained for 10 min or until the subjects rated the pain as intolerable. The area under the curve VAS-time was computed. For those subjects who felt intolerable pain before 10 min, the time when the cuff was deflated was recorded and VAS 10 was extrapolated until 10 min. Additionally, the maximal VAS during inflation was recorded.
# healthy male volunteers [2] = experiment: Cutaneous single electrical stimulation pain threshold; assay type: in vivo, human; conditions: mean (SD)
# Description: (§1) Electrical stimulation was performed through electrodes placed distal to the lateral malleolus. A 25 ms, train-of-five, 1 ms, square-wave impulse (perceived as one stimulus), was delivered by a computer-controlled constant current stimulator (Digitimer DS7A, Neurospec, Letchworth Garden City, UK). The current intensity was increased from 1 mA in steps of 0.5 mA until a pain sensation was evoked.
# (§2) Three assessments were made and the mean of these 3 measurements was used for the data analysis.
# healthy male volunteers [3] = experiment: Cutaneous repeated (5 stimuli) electrical stimulation, temporal summation threshold; assay type: in vivo, human; conditions: mean (SD)
# Text: The stimulus burst used for single stimulus was repeated 5 times at 2 Hz, at constant intensity. The current intensity of the 5 stimuli was increased from 1 mA in steps of 0.5 mA until the subjects felt pain during the last 2–3 of the 5 stimuli (indicating temporal summation).
# as §2
# healthy male volunteers [4] = experiment: Conditioned pain modulation (cold pressor test and pressure algometry); assay type: in vivo, human; conditions: difference in pressure pain detection threshold after vs before cold pressor test, mean (SD)
# Text: This method explores the endogenous modulation of nociceptive input. Under normal conditions, pain after application of a “test” nociceptive stimulus is attenuated by the application of an additional conditioning noxious stimulus to a remote body region, reflecting diffuse endogenous inhibition, [20]. In the present study, pressure pain detection threshold and cold pressure test (see below) were used as test and conditioning stimuli, respectively. An increase in pressure pain detection threshold immediately after cold pressure test was an indication of CPM.
# The subjects placed their hand into a container filled with ice water. In order to maximize heterotopic stimulation, the hand contralateral to the side of pressure stimulation was used. The water was regularly mixed to maintain the temperature near to 0°C. The temperature of the water near the hand was monitored by a thermometer with a digital display (±0.1°C). The subjects were asked to keep the hand in the water until they felt an intolerable sensation of pain and were forced to remove the hand from the container, with a maximum time of 2 min.
# Pressure pain detection threshold was measured again at the same time as the subject was withdrawing the hand from the water (one single measurement). CPM was measured as the difference in pressure pain detection threshold between measurements after and before the cold pressure test.
# healthy male volunteers [5] = experiment: Pressure pain detection and tolerance thresholds (pressure algometer, 2nd toe); assay type: in vivo, human; conditions: mean (SD)
# Description: Pain detection and tolerance thresholds were measured with an electronic pressure algometer (Somedic, Hörby, Sweden) applied at the center of the pulp of the 2nd toe. […] The pressure was increased from 0 at a rate of 30 kPa/s to a maximum pressure of 1200 kPa. Pain detection threshold was defined as the point at which the pressure sensation turned to pain. Pain tolerance threshold was defined as the point at which the subject felt the pain as intolerable. If the threshold was not reached at 1200 kPa, this value was considered as threshold. Three assessments were made and the mean of these 3 measurements were used for the data analysis.
# healthy male volunteers [6] = experiment: Intramuscular single electrical stimulation pain threshold (tibialis anterior); assay type: in vivo, human; conditions: mean (SD)
# Description: as §1
# (§3) A needle was placed in the tibialis anterior muscle, 14 cm distal from the caudal end of the patella and 20 mm in depth. The same single and repeated stimulation patterns and the same procedure described for cutaneous stimulation were used.
# healthy male volunteers [7] = experiment: Cutaneous repeated (20 stimuli) electrical stimulation, VAS; assay type: in vivo, human; parameters: AUC of VAS during 20 cutaneous electrical stimuli: unit not given beside the values; conditions: mean (SD); for Maximal VAS during 20 cutaneous electrical stimuli: VAS 0-10
# Description: (§4) The stimulus burst used for single stimulus was repeated for a train of 20 pulses at 2 Hz, at an intensity corresponding to the temporal summation threshold. During this 10 s stimulation, pain intensity was continuously rated by the subject with an electronic VAS, and the area under the curve (AUC) was computed. Additionally, the maximal VAS during stimulation was recorded.
# healthy male volunteers [8] = experiment: Intramuscular repeated (20 stimuli) electrical stimulation, VAS; assay type: in vivo, human; parameters: AUC of VAS during 20 intramuscular electrical stimuli: unit not given beside the values; conditions: mean (SD); for Maximal VAS during 20 intramuscular electrical stimuli: VAS 0-10
# Description: as §4, §3
# [9] = trial protocol; ref Micromedex 2009; cited from earlier work
# [10] = baseline before medication, per drug session
# [11] = single oral dose (clobazam 20 mg, clonazepam 1 mg, tolterodine 1 mg), 120 min after medication
# [12] = single oral dose (clobazam 20 mg, clonazepam 1 mg, tolterodine 1 mg), after flumazenil 0.2 mg iv
# [13] = single oral dose (clobazam 20 mg, clonazepam 1 mg, tolterodine 1 mg), 30 min after medication
# [14] = single oral dose (clobazam 20 mg, clonazepam 1 mg, tolterodine 1 mg), 60 min after medication
# [15] = single oral dose (clobazam 20 mg, clonazepam 1 mg, tolterodine 1 mg), 90 min after medication
smiles,measurement,setting,value
Cc1ccc(O)c([C@H](CCN(C(C)C)C(C)C)c2ccccc2)c1 [Tolterodine],AUC of VAS during cuff algometry,healthy male volunteers [1]; [10],3348 (743)
same,AUC of VAS during cuff algometry,healthy male volunteers [1]; [11],2686 (1155)
same,AUC of VAS during cuff algometry,healthy male volunteers [1]; [12],2918 (1021)
same,Pain threshold after single cutaneous electrical stimulation,healthy male volunteers [2]; [10],9.9 (2.2) mA
same,Pain threshold after single cutaneous electrical stimulation,healthy male volunteers [2]; [13],10.3 (2.6) mA
same,Pain threshold after single cutaneous electrical stimulation,healthy male volunteers [2]; [14],10.7 (2.3) mA
same,Pain threshold after single cutaneous electrical stimulation,healthy male volunteers [2]; [15],10.9 (2.7) mA
same,Pain threshold after single cutaneous electrical stimulation,healthy male volunteers [2]; [11],11.5 (2.3) mA
same,Pain threshold after single cutaneous electrical stimulation,healthy male volunteers [2]; [12],12.1 (2.6) mA
same,Pain threshold after 5 cutaneous electrical stimuli,healthy male volunteers [3]; [10],8.8 (2.3) mA
same,Pain threshold after 5 cutaneous electrical stimuli,healthy male volunteers [3]; [13],9.0 (2.4) mA
same,Pain threshold after 5 cutaneous electrical stimuli,healthy male volunteers [3]; [14],9.2 (2.2) mA
same,Pain threshold after 5 cutaneous electrical stimuli,healthy male volunteers [3]; [15],9.5 (2.2) mA
same,Pain threshold after 5 cutaneous electrical stimuli,healthy male volunteers [3]; [11],9.7 (2.1) mA
same,Pain threshold after 5 cutaneous electrical stimuli,healthy male volunteers [3]; [12],10.0 (2.3) mA
same,Conditioned pain modulation,healthy male volunteers [4]; [10],68 (100) kPa
same,Conditioned pain modulation,healthy male volunteers [4]; [11],72 (114) kPa
same,Conditioned pain modulation,healthy male volunteers [4]; [12],77 (79) kPa
same,Pressure pain detection threshold,healthy male volunteers [5]; [10],403 (118) kPa
same,Pressure pain tolerance threshold,healthy male volunteers [5]; [10],674 (221) kPa
same,Pressure pain detection threshold,healthy male volunteers [5]; [11],371 (88) kPa
same,Pressure pain detection threshold,healthy male volunteers [5]; [12],382 (118) kPa
same,Pressure pain tolerance threshold,healthy male volunteers [5]; [12],685.0 (203) kPa
same,Pain threshold after single intramuscular electrical stimulation,healthy male volunteers [6]; [10],1.8 (1.2) mA
same,Pain threshold after single intramuscular electrical stimulation,healthy male volunteers [6]; [11],2.2 (1.2) mA
same,Pain threshold after single intramuscular electrical stimulation,healthy male volunteers [6]; [12],2.7 (1.7) mA
same,Maximal VAS during 20 cutaneous electrical stimuli,healthy male volunteers [7]; [10],4.7 (1.5)
same,Maximal VAS during 20 cutaneous electrical stimuli,healthy male volunteers [7]; [13],5.1 (1.6)
same,Maximal VAS during 20 cutaneous electrical stimuli,healthy male volunteers [7]; [14],4.8 (1.8)
same,Maximal VAS during 20 cutaneous electrical stimuli,healthy male volunteers [7]; [15],4.9 (1.8)
same,Maximal VAS during 20 cutaneous electrical stimuli,healthy male volunteers [7]; [11],4.6 (1.8)
same,Maximal VAS during 20 cutaneous electrical stimuli,healthy male volunteers [7]; [12],4.7 (1.6)
same,AUC of VAS during 20 cutaneous electrical stimuli,healthy male volunteers [7]; [10],379 (155)
same,AUC of VAS during 20 cutaneous electrical stimuli,healthy male volunteers [7]; [13],382 (134)
same,AUC of VAS during 20 cutaneous electrical stimuli,healthy male volunteers [7]; [14],362 (155)
same,AUC of VAS during 20 cutaneous electrical stimuli,healthy male volunteers [7]; [15],336 (143)
same,AUC of VAS during 20 cutaneous electrical stimuli,healthy male volunteers [7]; [11],328 (144)
same,AUC of VAS during 20 cutaneous electrical stimuli,healthy male volunteers [7]; [12],326 (136)
same,Maximal VAS during 20 intramuscular electrical stimuli,healthy male volunteers [8]; [10],4.5 (1.6)
same,Maximal VAS during 20 intramuscular electrical stimuli,healthy male volunteers [8]; [11],3.8 (2.4)
same,Maximal VAS during 20 intramuscular electrical stimuli,healthy male volunteers [8]; [12],4.1 (2.5)
same,AUC of VAS during 20 intramuscular electrical stimuli,healthy male volunteers [8]; [10],323 (127)
same,AUC of VAS during 20 intramuscular electrical stimuli,healthy male volunteers [8]; [11],286 (198)
same,AUC of VAS during 20 intramuscular electrical stimuli,healthy male volunteers [8]; [12],316 (206)
same,Oral bioavailability,[9],77%
